The values that follow come from patent US20080031967A1, “Compositions, products and methods for controlling weight in a mammal” (priority 2005, published 2008).

For test [1], the system named is primary rat adipocytes. Nature of the test: thermogenesis assay: oxygen consumption by adipocytes (oxygen probe). Type of test: cell-based. The note with it: fatty acid oxidation inhibitors. The protocol: Thermogenesis was measured using an oxygen probe to monitor oxygen consumption by the adipocytes as they oxidize fatty acids. This assay was developed in primary rat adipocytes (isolated as above) using a YSI 5300 monitor equipped with oxygen-sensitive electrodes in an 8-chamber air tight apparatus. […] Since oxygen consumption can be induced by both the Kreb's cycle (glucose metabolism) and β-oxidation (fatty acid metabolism), fatty acid oxidation inhibitors were used to test whether the increase in oxygen consumption is indeed induced by fatty acid oxidation. Valproic acid inhibits the entry of fatty acid into the mitochondria and 4-pentenoic acid inhibits β-ketothiolase (the enzyme in the last step of β-oxidation). […] It has been discovered that the use of the above-listed thermogenic agents in accordance with the present invention results in the effective modulation of thermogenesis in mammals. By “effective,” it is meant that administration of the thermogenic agents of the present invention results in a 10 to 15% increase in thermogenic activity in the in vitro oxygen consumption assay. Without wishing to be bound by theory, it is believed that the thermogenic agents of the present invention function by increasing the rate at which fatty acids are transported into the mitochondria and oxidized in the cell.

Another test concerns isolated rat adipocytes. Particulars: dissolved oxygen monitor; cited from earlier work.
Test [2] has as its system primary rat adipocytes. The note with it: validation compound, stated as known; cited from earlier work.

For the compound `CCCC(CCC)C(=O)O` [Valproic acid], the “effect on oxygen consumption induced by norepinephrine” value with primary rat adipocytes [1] is reported as “inhibit oxygen consumption induced by norepinephrine”. As for leptin: adipocyte-derived hormone, in the test with isolated rat adipocytes, the “effect on beta-oxidation in adipocytes” value is “stimulates beta-oxidation”. `NC[C@H](O)c1ccc(O)c(O)c1` [norepinephrine]: the “effect on rate of fatty acid oxidation and oxygen consumption” value in the test on primary rat adipocytes [2] is “increase the rate of fatty acid oxidation and oxygen consumption”. For `C=CCCC(=O)O` [4-pentenoic acid], the “effect on oxygen consumption induced by norepinephrine” value in the test with primary rat adipocytes [1] is recorded as “inhibit oxygen consumption induced by norepinephrine”.
